Experiments:
[1] = test system: cultured primary hippocampal neurons; assay: Neuroprotection against NMDA-induced excitotoxicity, LDH release; format: cell-based; conditions: 100 µM NMDA plus 30 µM glycine 1 h; LDH 20–24 h after; 30 µM 4, 10 µM (+)MK-801
[2] = molecular target: GluN1/GluN2C NMDA receptor (Rattus norvegicus, UniProt P35439+Q00961); format: cell-based; conditions: 3 µM compound, absence of Mg2+, n = 5
[3] = test system: diheteromeric NMDA receptors (GluN1 with GluN2A–D); assay: Two electrode voltage clamp, statements across the diheteromeric NMDA receptors; format: cell-based, rat; conditions: for decrease in potency: relative to parent analogues (1/14)
[4] = molecular target: GluN1/GluN2D NMDA receptor (Rattus norvegicus, UniProt P35439+Q62645); format: cell-based; conditions: compared to screening hit 1
GluN1/GluN2D NMDA receptor, sequence (Q62645 28-1323, other chains not shown): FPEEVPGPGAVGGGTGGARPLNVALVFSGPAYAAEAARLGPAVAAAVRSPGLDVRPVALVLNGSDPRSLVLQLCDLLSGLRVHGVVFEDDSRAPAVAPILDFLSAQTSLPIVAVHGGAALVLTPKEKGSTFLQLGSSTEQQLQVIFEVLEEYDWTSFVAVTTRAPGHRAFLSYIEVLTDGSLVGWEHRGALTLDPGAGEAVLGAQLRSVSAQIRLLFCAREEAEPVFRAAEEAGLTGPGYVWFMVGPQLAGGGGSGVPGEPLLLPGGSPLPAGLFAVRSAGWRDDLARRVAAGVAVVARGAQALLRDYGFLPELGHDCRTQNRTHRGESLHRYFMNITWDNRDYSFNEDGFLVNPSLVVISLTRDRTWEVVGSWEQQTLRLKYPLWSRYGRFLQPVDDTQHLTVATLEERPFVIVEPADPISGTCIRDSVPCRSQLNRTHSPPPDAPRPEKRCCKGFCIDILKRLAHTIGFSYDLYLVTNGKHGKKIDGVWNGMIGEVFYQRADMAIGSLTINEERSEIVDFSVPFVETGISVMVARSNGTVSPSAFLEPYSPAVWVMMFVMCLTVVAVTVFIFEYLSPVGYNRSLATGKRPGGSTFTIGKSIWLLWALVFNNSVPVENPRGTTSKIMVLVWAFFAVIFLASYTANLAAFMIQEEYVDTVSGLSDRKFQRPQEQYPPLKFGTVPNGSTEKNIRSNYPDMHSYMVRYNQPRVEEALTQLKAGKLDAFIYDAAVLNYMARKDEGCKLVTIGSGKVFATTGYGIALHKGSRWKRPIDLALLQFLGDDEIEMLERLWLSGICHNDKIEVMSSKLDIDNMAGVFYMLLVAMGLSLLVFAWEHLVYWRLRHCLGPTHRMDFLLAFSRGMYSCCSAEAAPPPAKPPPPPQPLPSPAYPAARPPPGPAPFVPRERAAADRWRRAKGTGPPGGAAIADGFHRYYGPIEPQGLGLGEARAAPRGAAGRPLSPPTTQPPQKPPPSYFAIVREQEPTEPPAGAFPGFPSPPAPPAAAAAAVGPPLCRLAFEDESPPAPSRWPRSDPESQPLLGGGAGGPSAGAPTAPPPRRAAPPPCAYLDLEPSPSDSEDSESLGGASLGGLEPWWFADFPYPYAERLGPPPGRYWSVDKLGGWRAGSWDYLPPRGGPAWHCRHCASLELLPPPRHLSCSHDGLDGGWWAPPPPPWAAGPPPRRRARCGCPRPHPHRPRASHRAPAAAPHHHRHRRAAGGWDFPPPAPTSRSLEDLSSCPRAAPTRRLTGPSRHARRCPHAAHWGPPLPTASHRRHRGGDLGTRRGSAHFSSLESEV

[5] = Stability of enantiomers separated by chiral semi-preparative HPLC; format: physicochemical; conditions: after chiral semi-preparative HPLC

GluN1/GluN2C NMDA receptor, sequence (Q00961 20-1237, other chains not shown): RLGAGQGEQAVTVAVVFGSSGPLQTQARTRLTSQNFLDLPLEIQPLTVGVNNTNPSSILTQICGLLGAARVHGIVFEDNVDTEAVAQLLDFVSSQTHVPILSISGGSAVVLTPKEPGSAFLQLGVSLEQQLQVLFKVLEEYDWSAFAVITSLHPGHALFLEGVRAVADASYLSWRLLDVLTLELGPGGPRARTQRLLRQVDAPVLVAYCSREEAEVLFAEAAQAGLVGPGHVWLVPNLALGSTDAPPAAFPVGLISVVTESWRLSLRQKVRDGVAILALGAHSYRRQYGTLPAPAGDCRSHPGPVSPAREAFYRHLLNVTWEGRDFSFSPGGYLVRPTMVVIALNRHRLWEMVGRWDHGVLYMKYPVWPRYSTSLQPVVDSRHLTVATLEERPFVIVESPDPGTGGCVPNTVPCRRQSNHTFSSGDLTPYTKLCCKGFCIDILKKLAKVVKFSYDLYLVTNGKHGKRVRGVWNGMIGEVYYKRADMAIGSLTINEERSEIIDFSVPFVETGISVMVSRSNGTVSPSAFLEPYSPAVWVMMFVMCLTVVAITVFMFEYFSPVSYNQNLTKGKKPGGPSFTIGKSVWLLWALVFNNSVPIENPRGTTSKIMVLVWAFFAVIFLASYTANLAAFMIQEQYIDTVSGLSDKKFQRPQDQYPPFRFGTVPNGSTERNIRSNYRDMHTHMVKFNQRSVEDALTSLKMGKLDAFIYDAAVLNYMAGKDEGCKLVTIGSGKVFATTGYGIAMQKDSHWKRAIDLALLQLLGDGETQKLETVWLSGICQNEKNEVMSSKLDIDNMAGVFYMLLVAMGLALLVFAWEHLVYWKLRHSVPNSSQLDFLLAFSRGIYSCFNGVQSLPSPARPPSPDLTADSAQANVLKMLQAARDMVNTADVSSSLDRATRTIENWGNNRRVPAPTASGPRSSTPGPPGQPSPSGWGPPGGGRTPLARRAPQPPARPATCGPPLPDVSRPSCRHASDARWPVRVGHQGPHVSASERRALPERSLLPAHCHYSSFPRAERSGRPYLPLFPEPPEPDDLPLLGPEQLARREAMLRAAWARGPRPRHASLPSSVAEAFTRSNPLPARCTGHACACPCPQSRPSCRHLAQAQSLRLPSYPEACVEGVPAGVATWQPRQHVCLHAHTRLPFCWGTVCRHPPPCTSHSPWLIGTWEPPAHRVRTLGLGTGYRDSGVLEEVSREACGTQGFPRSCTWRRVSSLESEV

C[C@]12N[C@H](Cc3ccccc31)c1ccccc12 [(+)MK-801, reference compound]
NMDA/glycine-induced cell death (supernatant LDH) [1]: able to attenuate

CCOC(=O)c1c(NC(=O)CC2SC(N)=NC2=O)sc2c1CCC(C)C2 (centres unmarked) [Compound 4]
degree of inhibition at membrane potentials between ‒60 and +60 mV [2]: the same at all voltages tested | improved activity compared to unsubstituted counterpart 5 [3]: ~ 2 fold | mechanism: inhibition with 10-fold increase in glutamate (1000 µM) or glycine (300 µM) ([3]; 5 µM compound): could not be surmounted | inhibition at saturating concentrations against all GluN2 subunits ([3]; separate experiments, n = 4–6): 73–81% | NMDA/glycine-induced cell death (supernatant LDH) [1]: reduced significantly

CCOC(=O)c1c(NC(=O)CC2SC(=N)NC2=O)sc2c1CCCC2 (centres unmarked) [Compound 5]
increase in potency at GluN2D-containing receptors [4]: 3 fold

CCOC(=O)c1c(NC(=O)CC2SC(=N)NC2=O)sc2c1CCC(F)(F)C2 (centres unmarked) [Compound 11]
racemization of separated enantiomers [5]: prone to rapid racemization

N=C1NC(=O)C(CC(=O)Nc2sc3c(c2C(=O)O)CCCC3)S1 (centres unmarked) [Compound 13]
activity at NMDA receptor subtypes [3]: loss of activity

CCOC(=O)c1cc(C)sc1NC(=O)CC1SC(=N)NC1=O (centres unmarked) [Compound 15]
decrease in potency [3]: > 4 fold

COC(=O)c1ccsc1NC(=O)CC1SC(=N)NC1=O (centres unmarked) [Compound 19]
decrease in potency [3]: over 10 fold

COC(=O)c1c(NC(=O)CC2SC(N)=NC2=O)sc2c1CCCC2 (centres unmarked) [Compound 20]
increase in potency at GluN2D-containing receptors [4]: 2 fold

N#Cc1c(NC(=O)CC2SC(=N)NC2=O)sc2c1CCCC2 (centres unmarked) [Compound 21]
maximal inhibition [3]: 60%

COC(=O)c1c(NC(=O)CC2SC(N)=NC2=O)sc2c1CCC(C)C2 (centres unmarked) [Compound 22]
IC50 values for all NMDA receptor subunits [3]: submicromolar

CCOC(=O)c1c(NC(=O)CC2SC(=O)NC2=O)sc2c1CCC2 (centres unmarked) [Compound 24]
activity at NMDA receptor subtypes [3]: abolished activity

CCOC(=O)c1c(NC(=O)CC2SC(=O)NC2=O)sc2c1CCCC2 (centres unmarked) [Compound 25]
activity at NMDA receptor subtypes [3]: abolished activity

CCOC(=O)c1c(NC(=O)CC2NC(=O)NC2=O)sc2c1CCCC2 (centres unmarked) [Compound 27]
activity at NMDA receptor subtypes [3]: abrogated activity

Reference: paper PMC7971076 (Bioorganic & medicinal chemistry letters, 2015)
